Measured values as given in patent US11939402B2, “Antifungal peptides, compounds including the same, and methods of use thereof” (priority 2022, dated 2024).
In brackets after ≈: the same amount, converted by molar mass. Where a SMILES comes first, the peptide text is derived from it. The star is where a group is joined. Palmitoyl = CCCCCCCCCCCCCCCC(=O)*; Myristoyl = CCCCCCCCCCCCCC(=O)*; Decanoyl = CCCCCCCCCC(=O)*; Hexanoyl = CCCCCC(=O)*

Columns and labels:
[1] = system: C. neoformans wild type strain H99; experiment: microbe, parasite or virus in culture; type: cell-based, Cryptococcus neoformans; settings: for MIC ug/mL H99: wild-type H99, read at 24 and 48 hours, 37° C.; for MIC ug/mL H99 / MIC: alone; for MIC: against C. neoformans H99 wild type
Procedure: The assays followed standard CLSI protocol for broth microdilution assays using yeasts.(32) Microbes were passaged in YPD media at 37° C. with mixing for 2 days before harvesting with an inoculation loop to prepare monocultures on Sabouraud Dextrose Agar (SDA) plates. Monocultures on SDA plates were incubated for 2 days at 37° C. before harvesting cells for microdilution assays. RPMI media (100 μL) was charged to each of the 96 wells in a 96 well plate, with an additional 100 μL in the first column. […] The 100 μL was serially diluted by a factor of 2 from the first column to the 11th column. Microbe inoculant was then prepared. An inoculation loop was used to transfer 1-3 colonies of cells to 1 mL phosphate buffer solution (PBS). The PBS and microbe solution was made uniform by vortex mixing. Cell concentration was computed by comparing the absorbance at 530 nm to 1× McFarland standard solution and multiplying the resulting ratio by 10^7 cell/mL conversion factor. Plate inoculant was prepared by diluting the PBS microbe solution to 5000 cell/mL, in RPMI media. A 100 μL aliquot of cells was transferred to each of the wells on the plate other than column 11 for the no growth control. The operating volume was 200 μL, with 500 CFU per well for a final concentration of 2.5*10^3 cells/mL.

[2] = system: C. neoformans cdc50Δ mutant strain; type: cell-based, Cryptococcus neoformans; settings: alone
Procedure: The assays followed standard CLSI protocol for broth microdilution assays using yeasts.(32) Microbes were passaged in YPD media at 37° C. with mixing for 2 days before harvesting with an inoculation loop to prepare monocultures on Sabouraud Dextrose Agar (SDA) plates. Monocultures on SDA plates were incubated for 2 days at 37° C. before harvesting cells for microdilution assays. RPMI media (100 μL) was charged to each of the 96 wells in a 96 well plate, with an additional 100 μL in the first column. Peptide-DMSO solution (4 μL) at 12.8 mg/mL was charged to each of the wells in the first column. The 100 μL was serially diluted by a factor of 2 from the first column to the 11th column. Microbe inoculant was then prepared. An inoculation loop was used to transfer 1-3 colonies of cells to 1 mL phosphate buffer solution (PBS). The PBS and microbe solution was made uniform by vortex mixing. Cell concentration was computed by comparing the absorbance at 530 nm to 1× McFarland standard solution and multiplying the resulting ratio by 10^7 cell/mL conversion factor. Plate inoculant was prepared by diluting the PBS microbe solution to 5000 cell/mL, in RPMI media. A 100 μL aliquot of cells was transferred to each of the wells on the plate other than column 11 for the no growth control. The operating volume was 200 μL, with 500 CFU per well for a final concentration of 2.5*10^3 cells/mL.

[3] = system: C. neoformans cdc50Δ mutant strain; type: cell-based, Cryptococcus neoformans; settings: for FIC ug/mL ΔCDC50 Peptide: concentration of the peptide in combination with caspofungin; for FIC Index ΔCDC50: peptide with caspofungin, ΔCDC50 (table S1)
Procedure: The Fractional Inhibitory Concentration Index were calculated as follows: […]

[4] = system: C. neoformans wild type strain H99; settings: concentration of the peptide in combination with caspofungin; H99
Procedure: Microbes were prepared in the same manner as the MIC assay. […] 100 μL of RPMI media was added to the first 8 wells in the first row. […] The 100 μL of media with drug was serially diluted from the first row to the final row. […] Column 11 was the no growth control, and 12 was the no drug control. The plate was inoculated with microbes in the same manner as the MIC assay. Again, 200 uL was the operating volume, 500 CFU per well, 2.5*10^3 cell/mL. Plates were incubated for 48 hours at 37° C. and read thereafter. The Fractional Inhibitory Concentration Index were calculated as follows:
Where the MICA and MICB are the MIC values of drugs A and B alone and FICA and FICB are the Fractional Inhibitory concentrations of drugs A and B in the presence of each other, respectively.

C. neoformans cells = experiment: AF350-Annexin V / propidium iodine flow cytometry assay (exofacial phosphatidylserine); type: cell-based, Cryptococcus neoformans; settings: 0.128 mg/mL peptide, 20 minutes at 25° C.; control 0.2±0.1%
Procedure: Stock microbes were defrosted from the −80° C. freezer and were passed twice for 48 hours each in YPD media. The YPD media was removed by spinning down and the supernatant was decanted. Pelletized cells were resuspended in 1 mL PBS media and washed for 5 minutes with incubation at 25° C. and 250 RPM. Washed cells were spun down again and suspended in 1 mL of PBS solution. cells were diluted 20-fold into 1 mL fungal working solution in an eppendorf. Cell concentration was quantified via comparison to 1× McFarlain's standard on a plate reader using the absorbance value at 530 nm. An aliquot of 1*10^6 cells in 100 μL was created (1*10^7 cell/mL). […] The cells were incubated for 20 minutes at 25° C. and 250 RPM. Baseline and experimental samples were prepared in triplicate. Cells were stained using an operating concentration of 0.001 mg/mL Propidium Iodine (PI) and a 40-fold dilution of AlexaFluor 350 labelled annexin V as per manufactures instructions. After staining the cells, samples were spun down and supernatant decanted. Cells were then fixed in 4% formaldehyde for 5 minutes. Fixed cells were spun down and supernatant decanted and resuspended in 400 μL 1% formaldehyde for flowcytometry. Samples were collected at a slow flow rate on a MACS Quant 10 device (Miltenyi Biotech, Auburn, CA) with 20,000 events collected per injection.
It was sought to determine whether the activities of the peptides were related to the lipid-flipping activity of the P4-ATPase. […] The intensity of the AF350-annexin V signal corresponds to concentration of PS on the exofacial side of the membrane. The propidium iodine signal corresponds to cell viability.
Single cells were first selected and gated based on morphology to ensure homogeneity among the cell population (4A, 4B). Cells with low propidium iodine intensity (PI-A<9 RU) and high AF350-annexin V intensity (Annexin V-A>9 RU) (4C, 4D) were examined. Under these gating parameters there should be, respectively, low non-specific cell death and high exofacial PS.

Row | Compound | MIC ug/mL H99 [1] [µg/mL] | MIC ug/mL ΔCDC50 [2] [µg/mL] | FIC ug/mL ΔCDC50 Peptide [3] [µg/mL] | FIC Index ΔCDC50 [3] | FIC ug/mL H99 Peptide [4] [µg/mL] | MIC [1] [µg/mL] | percentage of cells with low propidium iodine intensity (PI-A<9 RU) and high AF350-annexin V intensity (Annexin V-A>9 RU) (C. neoformans cells) [%] | growth in MIC plate wells compared to the no drug control ([1]; visual inspection of the MIC plates, H99)
1 | CCCCCCCCCC(=O)N[C@@H](CO)C(=O)N[C@@H](CCC(=O)O)C(=O)N[C@@H](CO)C(=O)NCC(=O)N[C@H](C(=O)N[C@@H](C)C(=O)N[C@@H](Cc1c[nH]c2ccccc12)C(=O)NCC(=O)NCC(=O)N[C@H](C(=O)N[C@@H](CCCCN)C(=O)N[C@@H](CCCCN)C(=O)N[C@@H](CC(N)=O)C(=O)N[C@@H](Cc1ccc(O)cc1)C(=O)N[C@@H](C)C(=O)O)[C@@H](C)CC)[C@@H](C)CC [AS15-Da] (Decanoyl-SESGIAWGGIKKNYA-OH) | >128 | >128 | – | – | – | – | – | –
2 | CCCCCC(=O)N[C@@H](CO)C(=O)N[C@@H](CCC(=O)O)C(=O)N[C@@H](CO)C(=O)NCC(=O)N[C@H](C(=O)N[C@@H](C)C(=O)N[C@@H](Cc1c[nH]c2ccccc12)C(=O)NCC(=O)NCC(=O)N[C@H](C(=O)N[C@@H](CCCCN)C(=O)N[C@@H](CCCCN)C(=O)N[C@@H](CC(N)=O)C(=O)N[C@@H](Cc1ccc(O)cc1)C(=O)N[C@@H](C)C(=O)O)[C@@H](C)CC)[C@@H](C)CC [AS15-Ha] (Hexanoyl-SESGIAWGGIKKNYA-OH) | >128 | >128 | – | – | – | – | – | –
3 | CCCCCCCCCCCCCCCC(=O)N[C@@H](CO)C(=O)N[C@@H](CCC(=O)O)C(=O)N[C@@H](CO)C(=O)NCC(=O)N[C@H](C(=O)N[C@@H](C)C(=O)N[C@@H](Cc1c[nH]c2ccccc12)C(=O)NCC(=O)NCC(=O)N[C@H](C(=O)N[C@@H](CCCCN)C(=O)N[C@@H](CCCCN)C(=O)N[C@@H](CC(N)=O)C(=O)N[C@@H](Cc1ccc(O)cc1)C(=O)N[C@@H](C)C(=O)O)[C@@H](C)CC)[C@@H](C)CC [AS15-Pa] (Palmitoyl-SESGIAWGGIKKNYA-OH) | >128 | 128 (≈ 70.4 µM) | 2 | 0.53 | 0.5 | – | – | –
4 | CCCCCCCCCCCCCCCC(=O)N[C@@H](Cc1c[nH]c2ccccc12)C(=O)NCC(=O)NCC(=O)N[C@H](C(=O)N[C@@H](CCCCN)C(=O)N[C@@H](CCCCN)C(=O)N[C@@H](CC(N)=O)C(=O)N[C@@H](Cc1ccc(O)cc1)C(=O)N[C@@H](C)C(=O)O)[C@@H](C)CC [AW9-Pa] (Palmitoyl-WGGIKKNYA-OH) | – | – | 1 | – | 0.5 | – | – | –
5 | CCCCCCCCCCCCCC(=O)N[C@@H](Cc1c[nH]c2ccccc12)C(=O)NCC(=O)NCC(=O)N[C@H](C(=O)N[C@@H](C)C(=O)N[C@@H](C)C(=O)N[C@@H](CC(N)=O)C(=O)N[C@@H](Cc1ccc(O)cc1)C(=O)N[C@@H](C)C(=O)O)[C@@H](C)CC [K5A;K6A-Ma] (Myristoyl-WGGIAANYA-OH) | – | – | – | – | – | >128 | 1.3±0.9 | –
6 | CCCCCCCCCCCCCC(=O)N[C@@H](CO)C(=O)NCC(=O)N[C@H](C(=O)N[C@@H](C)C(=O)N[C@@H](Cc1c[nH]c2ccccc12)C(=O)NCC(=O)NCC(=O)N[C@H](C(=O)N[C@@H](CCCCN)C(=O)O)[C@@H](C)CC)[C@@H](C)CC [KS9-Ma] (Myristoyl-SGIAWGGIK-OH) | >128 | >128 | – | – | – | – | – | –
7 | CCCCCCCCCCCCCC(=O)N[C@@H](Cc1c[nH]c2ccccc12)C(=O)NCC(=O)NCC(=O)N[C@H](C(=O)N[C@@H](C)C(=O)N[C@@H](CCCCN)C(=O)N[C@@H](CC(N)=O)C(=O)N[C@@H](Cc1ccc(O)cc1)C(=O)N[C@@H](C)C(=O)O)[C@@H](C)CC [Peptide K5A-Ma] (Myristoyl-WGGIAKNYA-OH) | – | – | – | – | – | >128 | 5.6±0.1 | –
8 | CCCCCCCCCCCCCC(=O)N[C@@H](Cc1c[nH]c2ccccc12)C(=O)NCC(=O)NCC(=O)N[C@H](C(=O)N[C@@H](CCCCN)C(=O)N[C@@H](C)C(=O)N[C@@H](CC(N)=O)C(=O)N[C@@H](Cc1ccc(O)cc1)C(=O)N[C@@H](C)C(=O)O)[C@@H](C)CC [Peptide K6A-Ma] (Myristoyl-WGGIKANYA-OH) | – | – | – | – | – | >128 | – | –
9 | CCCCCCCCCCCCCC(=O)N[C@@H](Cc1ccc(O)cc1)C(=O)N[C@H](C(=O)N[C@@H](CC(=O)O)C(=O)NCC(=O)N[C@@H](Cc1ccccc1)C(=O)N1CCC[C@H]1C(=O)N[C@@H](CC(N)=O)C(=O)N[C@@H](CC(C)C)C(=O)N[C@@H](CCCNC(=N)N)C(=O)N[C@@H](CCC(=O)O)C(=O)N[C@@H](CC(=O)O)C(=O)N[C@@H](CCC(=O)O)C(=O)N[C@@H](Cc1c[nH]cn1)C(=O)N[C@@H](Cc1ccccc1)C(=O)N[C@@H](CCC(N)=O)C(=O)O)C(C)C [QY15-Ma] (Myristoyl-YVDGFPNLREDEHFQ-OH) | >128 | 128 (≈ 61.6 µM) | 0.5 | 0.25 | 0.5 | – | – | –
10 | Ac-SESGIAWGGIKKNYA-OH [AS15-Aa] | >128 | >128 | – | – | – | – | – | –
11 | H-SESGIAWGGIKKNYA-OH [AS15] | >128 | 128 | 0.5 | 0.25 | 0.5 | – | – | stronger and more confluent growth
12 | H-YVDGFPNLREDEHFQ-OH [QY15] | >128 | >128 | 0.5 | 0.5-1 | 0.5 | – | – | –
